The source of these data is patent US5075289A, “9-R-azacyclic erythromycin antibiotics” (priority 1988, dated 1991).

Each structure is given as a SMILES string. In brackets after ≈: the same amount, converted by molar mass. Like-named read-outs stand apart in the source and are kept apart here. A value given as a limit tells only on which side of the number the result lay.

Assay [1] relates to Staphylococcus aureus CMX 503A. The experiment in a line: In vitro antibacterial activity, agar dilution MIC. It is filed as cell-based. Particulars: CMX503A, S. aureus CMX 503A, Brain Heart Infusion agar, 20-24 hours, read-out: MIC. In outline: (§1)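 Test compound serially diluted in Brain Heart Infusion agar across twelve plates; inocula of 1:100 dilutions (1:10 for slow growers such as Streptococcus) applied by replicator. Plates incubated 20-24 h at 35°-37° C. MIC taken as lowest concentration giving no growth, slight haze or sparse isolated colonies versus drug-free control.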
(In general: Agar dilution tests growth on a series of plates holding different concentrations.)

In assay [2] the test system is Staphylococcus aureus 45 RAR 2. Nature of the assay: microbe, parasite or virus in culture. It is filed as cell-based. Particulars: 45RAR2. In outline: as §1
The subject of assay [3] is Staphylococcus aureus (NCTC 10649). Nature of the assay: In-vivo mouse protection assay (acute mouse protection test). The arrangement: species or system Swiss albino mice. Particulars: S. aureus NCTC 10649, dosed 1 and 5 hours post infection, 7 days, read-out: ED50. How it is done: (§2) The acute mouse protection test is conducted on ten mice with each of three levels of drug. Mouse mortality is used to calculate an ED50 value, i.e., the dose of drug required to protect 50% of the test animals against death due to the inoculum challenge.
(§3) The acute mouse protection test is conducted on female, Swiss albino mice, 18-20 grams in weight. […] To check the potency of the inoculum, a titration of the indicated test organism is carried out in control animals. The treatment group of animals is dosed with the test compound at 1 and 5 hours post infection and observed for 7 days. The ED50 values are calculated using the mortality data collected.

Assay [4] deals with Streptococcus pneumoniae (6303). Described as above. The arrangement: species or system Swiss albino mice. Particulars: 168 h, S. pneumoniae 6303, dosed 1 and 5 hours post infection, 7 days, read-out: ED50. On the procedure: as §2, §3
Assay [5] relates to Streptococcus pyogenes C-203. The description is as above. The arrangement: species or system Swiss albino mice. On the procedure: as §2, §3
Where [6] appears, read: NCTC10649, sc, 168 h, Subcutaneous.
[7] abbreviates: C203, 168 h, Oral, S. pyogenes C-203, dosed 1 and 5 hours post infection, 7 days, read-out: ED50.

The ED50 is the midpoint of the dose-response relation. Regarding `CC[C@H]1OC(=O)[C@H](C)[C@@H](O[C@H]2C[C@@](C)(OC)[C@@H](O)[C@H](C)O2)[C@H](C)[C@@H](O[C@@H]2O[C@H](C)C[C@H](N(C)C)[C@H]2O)[C@](C)(O)C[C@@H](C)[C@@H](N2CCOCC2)[C@H](C)[C@@H](O)[C@]1(C)O` [Example 19], the MIC in assay [1] and in assay [2] was 0.39 µg/mL (≈ 0.484 µM) in each case. Besides, the ED50 was 44.8 mg/kg in assay [3] (NCTC10649, 168 h, Oral); 15.5 mg/kg in assay [3] (setting [6]); 9.7 mg/kg in assay [4] (Oral); 1.1 mg/kg in assay [4] (sc, Subcutaneous); 9.5 mg/kg in assay [5] (setting [7]); 2.1 mg/kg in assay [5] (C203, sc, 168 h).

As for `CC[C@H]1OC(=O)[C@H](C)[C@@H](O[C@H]2C[C@@](C)(OC)[C@@H](O)[C@H](C)O2)[C@H](C)[C@@H](O[C@@H]2O[C@H](C)C[C@H](N(C)C)[C@H]2O)[C@](C)(O)C[C@@H](C)[C@@H](N2CCCCC2)[C@H](C)[C@@H](O)[C@]1(C)O` [Example 5], the MIC in assay [1] turned out to be 0.39 µg/mL (≈ 0.486 µM); in assay [2] it was 0.78 µg/mL (≈ 0.971 µM). Moreover, the ED50 in assay [3] (NCTC10649, 168 h, Oral) is 41.9 mg/kg; in assay [3] (setting [6]), 7.5 mg/kg; in assay [4] (Oral) it was 4.5 mg/kg; in assay [4] (sc, Subcutaneous), 0.4 mg/kg; in assay [5] (setting [7]), less than 7.5 mg/kg; in assay [5] (C203, sc, 168 h, Subcutaneous, S. pyogenes C-203, dosed 1 and 5 hours post infection, 7 days, read-out: ED50), less than 0.6 mg/kg.
